Experiment [1] deals with PI3K-dependent cascades in neutrophils. The following applies: human neutrophils; cited from earlier work. The text has this:
(§1) Given that PACAP has been reported to activate MAPK (e.g., in human SH-SY5Y neuroblastoma cells)[24], and PI3K-dependent cascades (e.g., in human neutrophils)[25], the functional role of MAPK and PI3K in PACAP-induced grass carp promoter activity were also examined. […] However, parallel treatment with the PI3K inhibi ...

In experiment [2] the test system is MAPK in SH-SY5Y neuroblastoma cells. The conditions noted are these: human SH-SY5Y neuroblastoma cells; cited from earlier work.
Source text: as §1

Another experiment has as its system PAC1 receptors. The conditions noted are these: cited from earlier work. The text has this: (§2) PACAP and vasoactive intestinal peptide (VIP) are members of the glucagon/secretin peptide family and have been reported to play roles in PRL regulation. […] In contrast to VIP, the biological actions of PACAP on ...
In experiment [3] the test system is PRL promoter in GH3 cells. The following applies: cAMP-dependent; cited from earlier work.
Source text: as §2

Experiment [4] concerns PRL gene expression in GH4C1 cells. The conditions noted are these: cited from earlier work.
Source text: as §2

The subject of experiment [5] is PRL secretion / PRL gene expression. The following applies: mammals, cited from earlier work.
Source text: as §2

Experiment [6] deals with cAMP production in αT3-1 cells. The following applies: via PAC1 receptors; cited from earlier work.
Experiment [7] concerns grass carp PRL promoter (pPRL(−1156).Luc) in αT3-1 cells. It counts as cell-based, grass carp (promoter); rat (αT3-1 cells, as printed). The conditions noted are these: 0.1–1000 nM, 24 hr, n = 4. The protocol:
The cells were then cultured for 18 hr recovery before drug treatment. (A) Time course analysis on the effect of oPACAP38 (6–48 hrs) on grass carp PRL promoter activity in αT3-1 cells. (B) αT3-1 cells over-expressed pPRL(−1156).LUC were treated for 24 hrs with increasing doses of oPACAP38. Effects of PACAP and VIP antagonists on PACAP-induced PRL mRNA expression were also investigated. In these experiments, αT3-1 cells over-expressed pPRL(−1156).LUC were challenged with oPACAP38 (10 nM, 24 hr) in the presence or absence of (C) the PACAP antagonist PACAP6-38 (10 nM) or (D) VIP antagonist (4-Cl-D-Phe6, Leu17)VIP (“VIP-R antagonist”, 100 nM).
After 18 h recovery, the cells were incubated with respective drugs. (A) αT3-1 cells over-expressed pPRL(−1156).LUC were treated for 24 hrs with increasing doses of cpt-cAMP (1–100 μM). (B) αT3-1 cells over-expressed pPRL(−1156).LUC were treated for 24 hrs with increasing doses of Forskolin (10–1000 nM). Effects of cAMP/PKA inhibitors on PACAP-induced PRL mRNA expression were then investigated. αT3-1 cells over-expressed pPRL(−1156).LUC were challenged with oPACAP38 (10 nM, 24 hr) in the presence or absence of (C) AC inhibitor MDL12330A (10 μM) or (D) PKA blocker H89 (10 μM).
After 18 h recovery, the cells were incubated with respective drugs. The cells were treated for 24 hr with increasing doses of (A) Ca^2+ ionophore A23187 or (B) L-type VSCC activator Bay K8644. Inhibiting extracellular Ca^2+ entry on PRL mRNA expression in carp pituitary cells was examined. In this study, αT3-1 cells over-expressed pPRL(−1156).LUC were treated with (C) oPACAP38 (10 nM, 24 hrs) or (D) Forskolin (100 nM, 24 hrs) in the Ca^2+-free medium (with different doses of EGTA).
After 18 h recovery, the cells were incubated with respective drugs.

The subject of experiment [8] is tCREB in grass carp pituitary cells. The experiment can be described thus: Western blot of tCREB in primary grass carp pituitary cells. The conditions noted are these: oPACAP38, 24 hrs. A general note: In western blotting, separated proteins are transferred to a membrane and probed.
Experiment [9] concerns PRL secretion / PRL mRNA in grass carp pituitary cells. The conditions noted are these: cited from earlier work. The text has this:
In carp model, PACAP nerve fibers can be identified in anterior pituitary overlapping with the distribution of lactotrophs. Furthermore, PAC1 receptors could be detected in grass carp lactotrophs.

The test system of the next experiment is CREB. The following applies: mammalian cell models; via cAMP/PKA, cAMP/ERK and/or PLC/PKC; cited from earlier work. The text has this:
CREB is a member of the leucine zipper transcription factors and well-known to be involved in the activation of cAMP-inducible genes. […] Expression of a dominant-negative form of CREB (MCREB) inhibited basal and Forskolin-induced PRL promoter activity and PRL mRNA expression in rat lactotrophs ...

Where two headings read alike, the source gives them in different places.

As a reminder, the EC50 is the concentration at which the effect is half-maximal. Consider “pituitary adenylate cyclase-activating peptide [PACAP]”, for which the “activation of PI3K-dependent cascades” value in experiment [1] is listed as “activate”. Further, the MAPK activation entry in [2] was “activate MAPK”. For the same substance, in the experiment with PAC1 receptors, the “affinity/specificity at PAC1 receptors” value is “specific for PACAP”. For the same substance, in [3], the “effect on PRL promoter activity” value is “up-regulate PRL promoter activity”. The “effect on PRL gene expression” value in experiment [4] is listed as “stimulatory effects”. Besides, the “effect on PRL secretion” value in [5] (ref 9, 13) is on record as “stimulatory”. Besides, the “effect on PRL secretion” value in [5] (ref 14) is “inhibitory”. Also, in experiment [5] (ref 15, 16), the “effect on PRL secretion” value is reported as “no effect”. Moreover, the cAMP production result in experiment [6] was “induced”. In experiment [7], the “concentration of maximal response, luciferase activity” value is given as 1000 nM and the “dose dependence of luciferase activity expression” value was “up-regulate luciferase activity expression in a dose-dependent manner”. In addition, the EC50 in experiment [7] (read-out: EC50 value, luciferase activity (PRL promoter activity)) is 4.5 nM. For the same substance, in [8], the “total CREB production” value is “stimulated total CREB production”. Moreover, in experiment [9], the “PRL mRNA expression” value is on record as “up-regulated” and the PRL secretion entry is on record as “up-regulated”. Further, in the experiment with CREB, the CREB phosphorylation result is recorded as “trigger CREB phosphorylation”.

The values above are taken from publication PMC5854708, “Grass Carp Prolactin Gene: Structural Characterization and Signal Transduction for PACAP-induced Prolactin Promoter Activity” (Scientific Reports, 2018).
